# Data reported in patent publication US8129527B2, “Analogs of dehydrophenylahistins and their therapeutic use” (Nereus Pharmacuticals, Inc., priority 2006, dated 2012).
# Like-named read-outs stand apart in the source and are kept apart here.
# What was measured:
# HT-29 cells = assay: Additional cytotoxicity assays, resazurin (Table 3.1); type: cell-based, human; details: for EC50: Homo sapiens
# Experimental: 10× concentrated serial dilutions of the two compounds were prepared in appropriate culture medium for final concentrations ranging from 2.0×10^−5 M to 2.0×10^−10 M. Ten μl volumes of the 10× serial dilutions were added to the test wells in triplicate and the plates returned to the incubator for 48 hours.
# Following 48 hours of drug exposure 10 μl of 0.2 mg/ml resazurin (obtained from Sigma-Aldrich Chemical Co.) in Mg^2+, Ca^2+ free PBS was added to each well and the plates were returned to the incubator for 3-4 hours. […] Resazurin dye without cells was used to determine the background, which was subtracted from the data for all experimental wells. The data were analyzed using Prism software (GraphPad Software).
# Additional cytotoxicity assays were performed as described above under this example, using Resazurin fluorescence as an indicator of cell viability.
# [1] = test system: HT-29 human colorectal carcinoma cells; assay: Cell growth inhibition assay, resazurin (Table 3.2); type: cell-based
# Experimental: The cytotoxic effects of various derivatives of dehydrophenylahistin against HT-29 human colorectal carcinoma cells were determined.
# HT-29 cells (ATCC; HTB-38) were maintained in ATCC recommended culture media and cultured in an incubator at 37° C. in 5% CO2 and 95% humidified air.
# For cell growth inhibition assays, HT-29 cells were seeded at 5×10^3 cells/well in 90 μl complete media into a Corning 3904 black-walled, clear-bottom tissue culture plates and the plates were incubated overnight to allow cells to establish and enter log phase growth. 20 mM stock solutions of compounds were prepared in 100% DMSO and stored at −80° C. 10× concentrated serial dilutions of the compounds were prepared in culture medium for final concentrations ranging from 20 μM to […]. Ten μl volumes of the 10× serial dilutions were added to the test wells in triplicate and the plates returned to the incubator for 48 hours. The final concentration of DMSO was 0.25% in all samples.
# Following 48 hours of drug exposure, 10 μl of 0.2 mg/ml resazurin (obtained from Sigma-Aldrich Chemical Co.) in Mg^2+, Ca^2+ free phosphate buffered saline was added to each well and the plates were returned to the incubator for 3-4 hours. […] Resazurin dye in medium without cells was used to determine the background, which was subtracted from the data for all experimental wells.
# HT-29 human colon cells = assay: Tumor cytotoxicity assay, resazurin fluorescence, 48 h (Example 6); type: cell-based; details: for EC50: Homo sapiens; for cytotoxic activity against HT-29 cells / activity compared with tBu-dehydroPLH: in words
# [2] = HT-29, Table 3.1, read-out: EC50 (M) Mean
# [3] = Table 3.2, HT-29 cells, read-out: EC50 (M) Mean
# [4] = HT-29, Table 3, read-out: EC50 (nM) HT-29
# [5] = HT-29, Table 5, synthetic potent dehydroPLH derivatives, read-out: EC50
# [6] = Table 7, electron-withdrawing group, proliferation of HT-29 cells, read-out: EC50
# [7] = Table 8, electron-donating group, proliferation of HT-29 cells, read-out: EC50
# [8] = Table 11, replacement with the heteroaryl ring, proliferation of HT-29 cells, read-out: EC50
smiles,measurement,setting,value
"Cc1c(F)cccc1/C=c1\[nH]c(=O)/c(=C/c2nc[nH]c2C(C)(C)C)[nH]c1=O [Compound 2435, tBu-delta-PLH-2-Me-3-F]",EC50,HT-29 cells; [2],3.34e-08 M
same,% cytotox Mean,HT-29 cells; Table 3.1,86%
"Cc1ccc(F)c(/C=c2\[nH]c(=O)/c(=C/c3nc[nH]c3C(C)(C)C)[nH]c2=O)c1 [Compound 2436, tBu-delta-PLH-2-F-5-Me]",EC50,HT-29 cells; [2],2.5e-08 M
same,% cytotox Mean,HT-29 cells; Table 3.1,86%
"Cc1cccc(/C=c2\[nH]c(=O)/c(=C/c3nc[nH]c3C(C)(C)C)[nH]c2=O)c1C [Compound 2439, tBu-delta-PLH-2,3-di-Me]",EC50,HT-29 cells; [2],2.96e-09 M
same,% cytotox Mean,HT-29 cells; Table 3.1,87%
"COc1cccc(/C=c2\[nH]c(=O)/c(=C/c3nc[nH]c3C(C)(C)C)[nH]c2=O)c1[N+](=O)[O-] [Compound 2441, tBu-delta-PLH-2-NO2-3-OMe]",EC50,HT-29 cells; [2],6.63e-07 M
same,% cytotox Mean,HT-29 cells; Table 3.1,83%
"Cc1ccc(C)c(/C=c2\[nH]c(=O)/c(=C/c3nc[nH]c3C(C)(C)C)[nH]c2=O)c1 [Compound 2442, tBu-delta-PLH-2,5-diMe]",EC50,HT-29 cells; [2],8.82e-08 M
same,% cytotox Mean,HT-29 cells; Table 3.1,87%
"COc1cccc(/C=c2\[nH]c(=O)/c(=C/c3nc[nH]c3C(C)(C)C)[nH]c2=O)c1N [Compound 2455, tBu-delta-PLH-2-NH2-3-OMe]",EC50,HT-29 cells; [2],3.49e-07 M
same,% cytotox Mean,HT-29 cells; Table 3.1,87%
"CC(C)(C)c1[nH]cnc1/C=c1\[nH]c(=O)/c(=C/c2ccccc2N)[nH]c1=O [Compound 2457, tBu-delta-PLH-2-NH2]",EC50,HT-29 cells; [2],4.32e-07 M
same,% cytotox Mean,HT-29 cells; Table 3.1,86%
"CC(C)(C)c1[nH]cnc1/C=c1\[nH]c(=O)/c(=C/c2cccc(N)c2)[nH]c1=O [Compound 2458, tBu-delta-PLH-m-NH2]",EC50,"HT-29 cells; HT-29, read-out: EC50 (M) Mean",3.1e-08 M
same,% cytotox Mean,HT-29 cells; Table 3.1,87%
"CC(C)(C)c1[nH]cnc1/C=c1\[nH]c(=O)/c(=C/c2sccc2B(O)O)[nH]c1=O [Compound 2459, tBu-delta-PLH-3-B(OH)2-2-thienyl]",EC50,HT-29 cells; [2],2.53e-08 M
same,% cytotox Mean,HT-29 cells; Table 3.1,88%
"CC(C)(C)c1[nH]cnc1/C=c1\[nH]c(=O)/c(=C/c2cc(Cl)ccc2N)[nH]c1=O [Compound 2461, tBu-delta-PLH-5-Cl-2-NH2]",EC50,[1]; [3],2.95e-07 M
"COc1cccc(/C=c2\[nH]c(=O)/c(=C/c3ncoc3C(C)(C)C)[nH]c2=O)c1 [Compound 2462, tBu-Oxadelta-PLH-m-OMe]",EC50,"[1]; HT-29, read-out: EC50 (M) Mean",5.41e-08 M
"CC(C)(C)c1ocnc1/C=c1\[nH]c(=O)/c(=C/c2cccc3ccccc23)[nH]c1=O [Compound 2464, tBu-Oxadelta-PLH-1-naphth]",EC50,"[1]; HT-29, read-out: EC50 (M) Mean",5.37e-08 M
"CC(C)(C)c1ocnc1/C=c1\[nH]c(=O)/c(=C/c2ccccc2Cl)[nH]c1=O [Compound 2465, tBu-Oxadelta-PLH-2-Cl]",EC50,[1]; [3],5.4e-08 M
"Cc1cccc(/C=c2\[nH]c(=O)/c(=C/c3ncoc3C(C)(C)C)[nH]c2=O)c1 [Compound 2466, tBu-Oxadelta-PLH-3-CH3]",EC50,"[1]; HT-29, read-out: EC50 (M) Mean",5.55e-08 M
"COc1cc(/C=c2\[nH]c(=O)/c(=C/c3nc[nH]c3C(C)(C)C)[nH]c2=O)cc(OC)c1 [KPU-16, tBu-ΔPLH-3,5-diOMe]",EC50,HT-29 human colon cells; [4],42 nM
same,EC50,HT-29 human colon cells; [5],42 nM
same,cytotoxic activity against HT-29 cells,HT-29 human colon cells,showed high activity
"CC(C)(C)c1[nH]cnc1/C=c1\[nH]c(=O)/c(=C/c2cc([N+](=O)[O-])ccc2Cl)[nH]c1=O [KPU-21, tBu-ΔPLH-2Cl-5-NO2]",EC50,HT-29 human colon cells; [4],51 nM
same,EC50,HT-29 human colon cells; [6],51 nM
"CC(C)(C)c1[nH]cnc1/C=c1\[nH]c(=O)/c(=C/c2ccc3c(c2)OCO3)[nH]c1=O [KPU-22, tBu-ΔPLH-3,4-methylene-dioxy]",EC50,HT-29 human colon cells; [4],82 nM
same,EC50,HT-29 human colon cells; [7],82 nM
"COc1cccc(/C=c2\[nH]c(=O)/c(=C/c3nc[nH]c3C(C)(C)C)[nH]c2=O)c1O [KPU-23, tBu-ΔPLH-2-OH-3-OMe (o-vanillin)]",EC50,HT-29 human colon cells; [4],5870 nM
same,EC50,HT-29 human colon cells; [7],5870 nM
"COc1cccc2cc3c(=O)[nH]/c(=C\c4nc[nH]c4C(C)(C)C)c(=O)n3c12 [KPU-24, tBu-ΔPLH-cyclized-3-MeO]",EC50,HT-29 human colon cells; [4],7040 nM
same,EC50,"HT-29 human colon cells; Table 6, proliferation of HT-29 cells, read-out: EC50",7040 nM
"Cc1ccc(/C=c2\[nH]c(=O)/c(=C/c3nc[nH]c3C(C)(C)C)[nH]c2=O)s1 [KPU-27, tBu-ΔPLH-5-Me-2-thienyl]",EC50,HT-29 human colon cells; [4],80 nM
same,EC50,HT-29 human colon cells; [8],80 nM
"Cc1ccsc1/C=c1\[nH]c(=O)/c(=C/c2nc[nH]c2C(C)(C)C)[nH]c1=O [KPU-29, tBu-ΔPLH-3-Me-2-thienyl]",EC50,HT-29 human colon cells; [4],44 nM
same,EC50,HT-29 human colon cells; [5],44 nM
same,cytotoxic activity against HT-29 cells,HT-29 human colon cells,exhibited activity
"CC(C)(C)c1[nH]cnc1/C=c1\[nH]c(=O)/c(=C/c2cccc3c2OCO3)[nH]c1=O [KPU-30, tBu-ΔPLH-2,3-methylendioxy]",EC50,HT-29 human colon cells; [7],477 nM
"Cc1cccc(/C=c2\[nH]c(=O)/c(=C/c3nc[nH]c3C(C)(C)C)[nH]c2=O)n1 [KPU-33, tBu-ΔPLH-3-Me-2-pyridyl]",EC50,HT-29 human colon cells; [8],> 20000 nM
"Cc1[nH]cnc1/C=c1\[nH]c(=O)/c(=C/c2nc[nH]c2C(C)(C)C)[nH]c1=O [KPU-36, tBu-ΔPLH-5-Me-4-im]",EC50,HT-29 human colon cells; [8],2790 nM
"CC(C)(C)c1[nH]cnc1/C=c1\[nH]c(=O)/c(=C/c2ccc(C#N)cc2)[nH]c1=O [KPU-43, tBu-ΔPLH-p-CN]",EC50,HT-29 human colon cells; [6],> 20000 nM
"COc1cc(OC)c(/C=c2\[nH]c(=O)/c(=C/c3nc[nH]c3C(C)(C)C)[nH]c2=O)c(OC)c1 [KPU-45, tBu-ΔPLH-2,4,6-TriOMe]",cytotoxic activity against HT-29 cells,HT-29 human colon cells,also showed activity
"CC(C)(C)c1[nH]cnc1/C=c1\[nH]c(=O)/c(=C/c2cc(Cl)ccc2[N+](=O)[O-])[nH]c1=O [KPU-52, tBu-ΔPLH-2-NO2-5-Cl]",EC50,HT-29 human colon cells; [6],110 nM
"COc1ccc(O)c(/C=c2\[nH]c(=O)/c(=C/c3nc[nH]c3C(C)(C)C)[nH]c2=O)c1 [KPU-54, tBu-ΔPLH-2-OH-5-OMe]",EC50,HT-29 human colon cells; [7],> 20000 nM
"COc1ccc(/C=c2\[nH]c(=O)/c(=C/c3nc[nH]c3C(C)(C)C)[nH]c2=O)cc1O [KPU-57, tBu-delta-PLH-3-OH-4-OMe]",EC50,HT-29 human colon cells; [7],> 20000 nM
"COc1ccc(/C=c2\[nH]c(=O)/c(=C/c3nc[nH]c3C(C)(C)C)[nH]c2=O)c(O)c1 [KPU-58, tBu-ΔPLH-2-OH-4-OMe]",EC50,HT-29 human colon cells; [7],> 20000 nM
"CC(C)(C)c1[nH]cnc1/C=c1\[nH]c(=O)/c(=C/c2ccc(Cl)s2)[nH]c1=O [KPU-61, tBu-ΔPLH-5-Cl-2-thionyl]",EC50,"HT-29 human colon cells; HT-29, Table 11, replacement with the heteroaryl ring, proliferation of HT-29 cells",184 nM
"Cn1cccc1/C=c1\[nH]c(=O)/c(=C/c2nc[nH]c2C(C)(C)C)[nH]c1=O [KPU-63, tBu-ΔPLH-N-Me-2-pyrrole]",EC50,HT-29 human colon cells; [8],105 nM
"CC(C)(C)c1[nH]cnc1/C=c1\[nH]c(=O)/c(=C/c2cccc(OC(F)(F)F)c2)[nH]c1=O [KPU-80, TBu-ΔPLH-m-OCF3]",EC50,HT-29 human colon cells; [5],13 nM
same,activity compared with tBu-dehydroPLH,HT-29 human colon cells,higher activity than tBu-dehydroPLH
"COc1ccc(F)c(/C=c2\[nH]c(=O)/c(=C/c3nc[nH]c3C(C)(C)C)[nH]c2=O)c1 [KPU-81, TBu-ΔPLH-2-F-5-OMe]",EC50,HT-29 human colon cells; [5],19 nM
same,activity compared with tBu-dehydroPLH,HT-29 human colon cells,higher activity than tBu-dehydroPLH
"Cc1cccc(/C=c2\[nH]c(=O)/c(=C/c3nc[nH]c3C(C)(C)C)[nH]c2=O)c1C [KPU-90, 3-{(Z)-1-[5-(tert-Butyl)-1H-4-imidazolyl]methylidene}-6-[(Z)-1-(2,3-dimethylphenyl)methylidene]-2,5-piperazinedione]",potency relative to dehydroPLH,HT-29 human colon cells,16 times
same,potency relative to tBu-dehydroPLH,HT-29 human colon cells,4 times
same,EC50,HT-29 human colon cells; [5],3 nM
same,EC50,"HT-29 human colon cells; HT-29, text to Table 5, most potent compound, read-out: EC50 value",3 nM
"CC(C)(C)c1[nH]cnc1/C=c1\[nH]c(=O)/c(=C/c2ccccc2)[nH]c1=O [tBu-dehydrophenylahistin, 3-Z-Benzylidene-6-(5″-tert-butyl-1H-imidazol-4″-Z-ylmethylene)-piperazine-2,5-dione]",greater cytotoxic activity in comparison with dehydrophenylahistin,HT-29 human colon cells; Table 1 text,~4 times
